Laboratory results: paper doi:10.1101/2023.10.20.563248v1 (biorxiv, 2023)

Tests used:
ABL1 = ABL1 (Homo sapiens, UniProt P00519); conditions: 1 µM; inhibitor
ACVR2B = ACVR2B (Homo sapiens, UniProt Q13705); conditions: 1 µM; inhibitor
AKT1 = AKT1 (Homo sapiens, UniProt P31749); conditions: 1 µM; inhibitor
CDK1/CycA2 = CDK1/CycA2 (Homo sapiens, UniProt P06493); conditions: 1 µM; inhibitor
CDK16 = CDK16 (Homo sapiens, UniProt Q00536); conditions: 1 µM; inhibitor
CDK4 = CDK4 (Homo sapiens, UniProt P11802); conditions: 1 µM; inhibitor
CDK4, sequence (P11802 whole entry): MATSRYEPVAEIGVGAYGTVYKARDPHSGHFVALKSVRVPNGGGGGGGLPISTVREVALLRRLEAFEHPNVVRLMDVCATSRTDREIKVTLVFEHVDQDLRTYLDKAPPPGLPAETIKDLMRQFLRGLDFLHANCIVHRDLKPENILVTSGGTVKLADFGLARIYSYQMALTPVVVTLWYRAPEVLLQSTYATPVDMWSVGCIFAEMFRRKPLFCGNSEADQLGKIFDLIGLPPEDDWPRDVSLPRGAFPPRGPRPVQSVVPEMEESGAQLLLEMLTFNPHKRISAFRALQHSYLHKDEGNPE

CDK5/p35NCK = CDK5/p35NCK (Homo sapiens, UniProt Q00535); conditions: 1 µM; inhibitor
CK1g2 = CK1g2 (Homo sapiens, UniProt P78368); conditions: 1 µM; inhibitor
CK1g2, sequence (P78368 whole entry): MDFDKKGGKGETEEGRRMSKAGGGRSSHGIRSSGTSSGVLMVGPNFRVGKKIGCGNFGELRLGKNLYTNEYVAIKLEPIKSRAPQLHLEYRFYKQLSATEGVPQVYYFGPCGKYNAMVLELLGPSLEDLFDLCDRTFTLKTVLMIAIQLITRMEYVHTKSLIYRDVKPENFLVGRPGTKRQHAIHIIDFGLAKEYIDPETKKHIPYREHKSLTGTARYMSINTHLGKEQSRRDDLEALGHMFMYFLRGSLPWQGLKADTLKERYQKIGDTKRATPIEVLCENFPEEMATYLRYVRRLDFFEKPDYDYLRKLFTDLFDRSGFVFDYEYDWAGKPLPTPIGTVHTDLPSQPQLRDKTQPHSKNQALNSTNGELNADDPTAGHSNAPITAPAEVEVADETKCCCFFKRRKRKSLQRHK

DDR2 = DDR2 (Homo sapiens, UniProt Q16832); conditions: 1 µM; inhibitor
EPHB4 = EPHB4 (Homo sapiens, UniProt P54760); conditions: 1 µM; inhibitor
GRK4 = GRK4 (Homo sapiens, UniProt P32298); conditions: 1 µM; inhibitor
JAK1 = JAK1 (Homo sapiens, UniProt P23458); conditions: 1 µM; inhibitor
JNK1 = JNK1 (Homo sapiens, UniProt P45983); conditions: 1 µM; inhibitor
JNK1, sequence (P45983 whole entry): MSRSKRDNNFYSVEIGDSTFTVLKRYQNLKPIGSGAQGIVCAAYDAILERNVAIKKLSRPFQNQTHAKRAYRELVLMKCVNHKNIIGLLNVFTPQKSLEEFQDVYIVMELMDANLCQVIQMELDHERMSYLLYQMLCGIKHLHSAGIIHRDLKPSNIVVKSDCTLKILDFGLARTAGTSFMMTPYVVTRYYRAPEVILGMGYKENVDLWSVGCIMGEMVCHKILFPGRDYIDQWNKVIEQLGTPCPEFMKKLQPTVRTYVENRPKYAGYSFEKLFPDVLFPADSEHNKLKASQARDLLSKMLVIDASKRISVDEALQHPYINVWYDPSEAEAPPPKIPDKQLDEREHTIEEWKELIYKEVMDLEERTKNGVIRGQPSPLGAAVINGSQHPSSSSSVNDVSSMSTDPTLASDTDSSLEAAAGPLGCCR

MKNK1 = MKNK1 (Homo sapiens, UniProt Q9BUB5); conditions: 1 µM; inhibitor
MUSK = MUSK (Homo sapiens, UniProt O15146); conditions: 1 µM; inhibitor
MUSK, sequence (O15146 whole entry): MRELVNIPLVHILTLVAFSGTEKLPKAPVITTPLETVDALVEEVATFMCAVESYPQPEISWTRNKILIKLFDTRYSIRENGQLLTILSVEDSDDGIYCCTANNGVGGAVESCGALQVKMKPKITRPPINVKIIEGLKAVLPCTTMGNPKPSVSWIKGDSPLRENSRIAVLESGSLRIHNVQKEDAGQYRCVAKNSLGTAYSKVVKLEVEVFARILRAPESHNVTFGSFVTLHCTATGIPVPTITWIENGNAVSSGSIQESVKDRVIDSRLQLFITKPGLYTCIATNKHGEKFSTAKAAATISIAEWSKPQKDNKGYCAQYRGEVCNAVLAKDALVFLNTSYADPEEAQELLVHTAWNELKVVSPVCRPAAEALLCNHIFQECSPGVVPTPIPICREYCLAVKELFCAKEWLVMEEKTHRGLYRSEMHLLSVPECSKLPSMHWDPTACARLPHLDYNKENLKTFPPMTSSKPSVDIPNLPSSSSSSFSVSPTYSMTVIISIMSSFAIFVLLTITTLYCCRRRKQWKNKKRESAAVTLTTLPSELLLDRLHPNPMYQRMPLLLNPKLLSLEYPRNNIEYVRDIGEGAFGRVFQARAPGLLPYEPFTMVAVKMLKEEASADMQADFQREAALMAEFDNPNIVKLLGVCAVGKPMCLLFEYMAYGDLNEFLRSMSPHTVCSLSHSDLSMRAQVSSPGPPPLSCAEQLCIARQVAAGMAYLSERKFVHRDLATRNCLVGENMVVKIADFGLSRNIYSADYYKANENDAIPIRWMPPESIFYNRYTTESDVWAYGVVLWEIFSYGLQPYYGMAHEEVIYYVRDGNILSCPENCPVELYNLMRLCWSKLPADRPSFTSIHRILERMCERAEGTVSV

MYLK2 = MYLK2 (Homo sapiens, UniProt Q9H1R3); conditions: 1 µM; inhibitor
MYLK2, sequence (Q9H1R3 whole entry): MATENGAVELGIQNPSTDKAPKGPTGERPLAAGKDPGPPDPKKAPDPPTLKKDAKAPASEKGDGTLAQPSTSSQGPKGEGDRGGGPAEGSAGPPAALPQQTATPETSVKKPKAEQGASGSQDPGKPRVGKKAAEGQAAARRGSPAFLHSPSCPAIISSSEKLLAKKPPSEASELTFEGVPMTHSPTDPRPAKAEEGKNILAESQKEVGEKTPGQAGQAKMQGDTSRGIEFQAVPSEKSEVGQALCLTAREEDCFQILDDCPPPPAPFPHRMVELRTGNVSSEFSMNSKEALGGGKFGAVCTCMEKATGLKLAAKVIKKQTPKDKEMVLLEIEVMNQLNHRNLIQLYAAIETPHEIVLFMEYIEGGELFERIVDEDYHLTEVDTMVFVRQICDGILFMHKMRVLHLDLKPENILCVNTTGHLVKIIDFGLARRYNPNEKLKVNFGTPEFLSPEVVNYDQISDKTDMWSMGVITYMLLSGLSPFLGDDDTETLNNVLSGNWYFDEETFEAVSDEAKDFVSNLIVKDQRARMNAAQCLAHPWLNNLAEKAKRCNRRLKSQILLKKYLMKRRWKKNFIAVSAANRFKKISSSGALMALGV

NDR2 = NDR2 (Homo sapiens, UniProt Q9Y2H1); conditions: 1 µM; inhibitor
NDR2, sequence (Q9Y2H1 whole entry): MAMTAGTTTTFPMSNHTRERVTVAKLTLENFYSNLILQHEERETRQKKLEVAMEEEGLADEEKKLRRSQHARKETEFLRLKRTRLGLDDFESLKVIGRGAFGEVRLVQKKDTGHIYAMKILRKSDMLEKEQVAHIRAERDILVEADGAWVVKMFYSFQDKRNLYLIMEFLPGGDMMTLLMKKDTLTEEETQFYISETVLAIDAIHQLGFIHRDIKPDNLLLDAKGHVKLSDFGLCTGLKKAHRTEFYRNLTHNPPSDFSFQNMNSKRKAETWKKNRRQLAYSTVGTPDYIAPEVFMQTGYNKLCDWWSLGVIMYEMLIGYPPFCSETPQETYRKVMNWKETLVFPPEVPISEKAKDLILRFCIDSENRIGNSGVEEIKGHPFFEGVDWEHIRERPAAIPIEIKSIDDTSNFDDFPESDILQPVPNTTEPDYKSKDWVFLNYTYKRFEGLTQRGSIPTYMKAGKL

PAK7 = PAK7 (Homo sapiens, UniProt Q9P286); conditions: 1 µM; inhibitor
PKCi = PKCi (Homo sapiens, UniProt P41743); conditions: 1 µM; inhibitor
PKCi, sequence (P41743 whole entry): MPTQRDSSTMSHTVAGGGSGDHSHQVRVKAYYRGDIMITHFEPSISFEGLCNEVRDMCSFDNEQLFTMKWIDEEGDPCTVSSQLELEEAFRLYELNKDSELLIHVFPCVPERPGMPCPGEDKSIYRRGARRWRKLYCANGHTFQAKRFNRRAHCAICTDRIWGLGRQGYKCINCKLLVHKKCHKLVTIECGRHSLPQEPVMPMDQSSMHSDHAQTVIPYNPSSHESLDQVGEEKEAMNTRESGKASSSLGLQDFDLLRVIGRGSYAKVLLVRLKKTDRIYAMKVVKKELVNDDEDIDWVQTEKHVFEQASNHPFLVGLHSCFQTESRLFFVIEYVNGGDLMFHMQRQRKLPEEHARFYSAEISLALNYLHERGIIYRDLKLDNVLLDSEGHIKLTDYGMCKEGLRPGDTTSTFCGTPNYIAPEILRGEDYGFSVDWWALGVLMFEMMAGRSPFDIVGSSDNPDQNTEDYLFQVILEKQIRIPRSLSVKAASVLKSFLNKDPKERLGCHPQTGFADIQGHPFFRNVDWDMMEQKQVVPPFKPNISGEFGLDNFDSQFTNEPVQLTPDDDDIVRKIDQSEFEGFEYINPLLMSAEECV

PRKD2 = PRKD2 (Homo sapiens, UniProt Q9BZL6); conditions: 1 µM; inhibitor
PRKX = PRKX (Homo sapiens, UniProt P51817); conditions: 1 µM; inhibitor
RIPK2 = RIPK2 (Homo sapiens, UniProt O43353); conditions: 1 µM; inhibitor
RIPK2, sequence (O43353 whole entry): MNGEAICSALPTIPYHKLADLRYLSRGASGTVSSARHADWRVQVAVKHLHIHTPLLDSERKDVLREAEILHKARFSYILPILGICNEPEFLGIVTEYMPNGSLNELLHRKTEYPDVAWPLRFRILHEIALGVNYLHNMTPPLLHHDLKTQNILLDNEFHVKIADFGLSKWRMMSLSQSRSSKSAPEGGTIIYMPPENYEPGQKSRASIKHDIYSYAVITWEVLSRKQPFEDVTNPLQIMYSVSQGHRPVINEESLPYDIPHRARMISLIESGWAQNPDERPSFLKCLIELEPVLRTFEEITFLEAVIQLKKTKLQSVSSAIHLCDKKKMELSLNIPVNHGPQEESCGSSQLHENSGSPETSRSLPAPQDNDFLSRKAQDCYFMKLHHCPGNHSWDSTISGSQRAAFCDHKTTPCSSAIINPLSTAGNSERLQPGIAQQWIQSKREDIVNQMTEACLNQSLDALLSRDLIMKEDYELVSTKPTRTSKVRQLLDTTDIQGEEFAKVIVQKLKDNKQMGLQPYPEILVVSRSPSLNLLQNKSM

SIK3 = SIK3 (Homo sapiens, UniProt Q9Y2K2); conditions: 1 µM; inhibitor
STK23 = STK23 (Homo sapiens, UniProt Q9UPE1); conditions: 1 µM; inhibitor
STK25 = STK25 (Homo sapiens, UniProt O00506); conditions: 1 µM; inhibitor
TBK1 = TBK1 (Homo sapiens, UniProt Q9UHD2); conditions: 1 µM; inhibitor
DYRK1B = DYRK1B (Homo sapiens, UniProt Q9Y463); test: biochemical; conditions: read-out: 21c Remaining activity, percent of control [%]
LTK = LTK (Homo sapiens, UniProt P29376); test: biochemical; conditions: read-out: 21c Remaining activity, percent of control [%]
MST3 = MST3 (Homo sapiens, UniProt Q9Y6E0); test: biochemical; conditions: 1 µM; inhibitor
STK33 = STK33 (Homo sapiens, UniProt Q9BYT3); test: biochemical; conditions: read-out: 21c Remaining activity, percent of control [%]
TTBK1 = TTBK1 (Homo sapiens, UniProt Q5TCY1); test: biochemical; conditions: read-out: 21c Remaining activity, percent of control [%]

CDK1/CycA2, sequence (P20248 whole entry): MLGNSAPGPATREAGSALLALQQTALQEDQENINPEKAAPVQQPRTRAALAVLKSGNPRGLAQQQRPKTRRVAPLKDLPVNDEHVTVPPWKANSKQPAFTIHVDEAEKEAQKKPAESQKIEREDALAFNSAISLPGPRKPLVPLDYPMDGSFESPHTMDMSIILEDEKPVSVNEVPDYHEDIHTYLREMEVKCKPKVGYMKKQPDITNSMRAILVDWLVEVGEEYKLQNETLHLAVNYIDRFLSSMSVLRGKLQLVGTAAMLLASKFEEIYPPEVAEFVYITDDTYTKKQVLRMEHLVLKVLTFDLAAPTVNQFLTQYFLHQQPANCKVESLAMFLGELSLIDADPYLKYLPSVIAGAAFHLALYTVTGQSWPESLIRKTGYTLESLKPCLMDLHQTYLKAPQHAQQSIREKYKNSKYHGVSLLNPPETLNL
CDK1/CycA2, sequence (P06493 whole entry): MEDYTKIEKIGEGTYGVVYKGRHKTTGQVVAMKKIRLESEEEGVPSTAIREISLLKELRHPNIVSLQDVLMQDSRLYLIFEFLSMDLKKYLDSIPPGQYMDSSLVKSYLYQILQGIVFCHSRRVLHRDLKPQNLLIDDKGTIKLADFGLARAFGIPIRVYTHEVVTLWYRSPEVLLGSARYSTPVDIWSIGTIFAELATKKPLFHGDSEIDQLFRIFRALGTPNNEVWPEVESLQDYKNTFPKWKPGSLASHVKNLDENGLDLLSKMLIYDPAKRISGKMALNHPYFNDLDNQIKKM

21c Remaining activity, percent of control [%] (ABL1): 106.1%
21c Remaining activity, percent of control [%] (ACVR2B): 100.5%
21c Remaining activity, percent of control [%] (AKT1): 92.1%
21c Remaining activity, percent of control [%] (CDK1/CycA2): 91.9%
21c Remaining activity, percent of control [%] (CDK16): 94.1%
21c Remaining activity, percent of control [%] (CDK4): 84.5%
21c Remaining activity, percent of control [%] (CDK5/p35NCK): 96.6%
21c Remaining activity, percent of control [%] (CK1g2): 109.6%
21c Remaining activity, percent of control [%] (DDR2): 103.0%
21c Remaining activity, percent of control [%] (EPHB4): 86.1%
21c Remaining activity, percent of control [%] (GRK4): 112.1%
21c Remaining activity, percent of control [%] (JAK1): 88.0%
21c Remaining activity, percent of control [%] (JNK1): 95.6%
21c Remaining activity, percent of control [%] (MKNK1): 97.3%
21c Remaining activity, percent of control [%] (MUSK): 83.0%
21c Remaining activity, percent of control [%] (MYLK2): 79.0%
21c Remaining activity, percent of control [%] (NDR2): 93.9%
21c Remaining activity, percent of control [%] (PAK7): 87.1%
21c Remaining activity, percent of control [%] (PKCi): 83.5%
21c Remaining activity, percent of control [%] (PRKD2): 82.0%
21c Remaining activity, percent of control [%] (PRKX): 93.9%
21c Remaining activity, percent of control [%] (RIPK2): 105.0%
21c Remaining activity, percent of control [%] (SIK3): 72.1%
21c Remaining activity, percent of control [%] (STK23): 80.7%
21c Remaining activity, percent of control [%] (STK25): 57.2%
21c Remaining activity, percent of control [%] (TBK1): 111.6%
remaining activity at 1 µM (DYRK1B): 79.7%
remaining activity at 1 µM (LTK): 92%
21c Remaining activity, percent of control [%] (MST3): 13.5%
remaining activity at 1 µM (STK33): 88.7%
remaining activity at 1 µM (TTBK1): 112%
SMILES: O=C1NCCCCCNc2nc(c3ccccc3n2)Nc2cc1[nH]n2 [21c, (Z)-3^1H-2,5,11-triaza-1(4,2)-quinazolina-3(3,5)-pyrazolacycloundecaphan-4-one]
